# According to article PMC11643962, “Exploring 4,7-Disubstituted Pyrimido[4,5-d]pyrimidines as Antiviral and Anticancer Agents” (Molecules, 2024):
# Legend:
# [1] = test system: NCI-H460 (lung carcinoma); experiment: MTS proliferation assay, NCI-H460; settings: Homo sapiens, NCI-H460, 72 h, read-out: Anti-Proliferative Activity (IC50) NCI-H460
# [2] = test system: influenza A/H1N1 (A/Ned/378/05); experiment: Antiviral CPE reduction assay, influenza A/H1N1 in MDCK cells; format: cell-based, influenza A virus; settings: Influenza A virus, H1N1; MDCK cells; CPE reduction, MTS; mean ± SD of two or three independent experiments; read-out: Antiviral Activity (EC50) Influenza H1N1
# [3] = test system: yellow fever virus (YFV 17D); experiment: microbe, parasite or virus in culture; format: cell-based; settings: Yellow fever virus, Vero C1008, read-out: Antiviral activity (EC50) YFV 17D
# [4] = test system: HCoV-NL63; experiment: Antiviral CPE reduction assay, HCoV-NL63 in Hep3B cells; format: cell-based, human coronavirus NL63; settings: Human coronavirus NL63, MTS, mean ± SD of two or three independent experiments
# [5] = in vitro; settings: human
# [6] = test system: K-562 (chronic myeloid leukemia); experiment: MTS proliferation assay, K-562; settings: Homo sapiens, K562, 72 h, read-out: Anti-Proliferative Activity (IC50) K-562
# [7] = test system: Capan-1 (pancreatic adenocarcinoma); experiment: MTS proliferation assay, Capan-1; settings: Homo sapiens, CAPAN-1, 72 h, read-out: Anti-Proliferative Activity (IC50) Capan-1
# [8] = test system: HCoV-229E; experiment: Antiviral CPE reduction assay, HCoV-229E in HEL299 cells; format: cell-based, human coronavirus 229E; settings: Human coronavirus 229E, HEL 299, MTS, mean ± SD of two or three independent experiments
# [9] = test system: LN-229 (glioblastoma); experiment: MTS proliferation assay, LN-229; settings: Homo sapiens, LN-229, 72 h, read-out: Anti-Proliferative Activity (IC50) LN-229
# [10] = test system: HCT-116 (colorectal carcinoma); experiment: MTS proliferation assay, HCT-116; settings: Homo sapiens, HCT-116, 72 h, read-out: Anti-Proliferative Activity (IC50) HCT-116
# [11] = in vitro; settings: dog
# [12] = test system: DND-41 (acute lymphoblastic leukemia); experiment: MTS proliferation assay, DND-41; settings: Homo sapiens, DND41, 72 h, read-out: Anti-Proliferative Activity (IC50) DND-41
# [13] = test system: Z-138 (non-Hodgkin lymphoma); experiment: MTS proliferation assay, Z-138; settings: Homo sapiens, Z-138, 72 h, read-out: Anti-Proliferative Activity (IC50) Z-138
# [14] = in vitro; settings: human; remark: listed apart in the source
# [15] = test system: influenza B (B/Ned/537/05); experiment: Antiviral CPE reduction assay, influenza B in MDCK cells; format: cell-based, influenza B virus; settings: Influenza B virus, MDCK, read-out: Antiviral Activity (EC50) Influenza B
# [16] = test system: Zika virus (ZikV mr766); experiment: Antiviral CPE reduction assay, Zika virus mr766 in VeroE6 cells; format: cell-based; settings: Zika virus, Vero C1008, MTS, mean ± SD, no unit printed on the supplement page (Table 2 of the same screen is in µM)
# [17] = test system: herpes simplex virus-1 (HSV-1 KOS); experiment: Antiviral CPE reduction assay, HSV-1 KOS in HEL299 cells; format: cell-based; settings: Human alphaherpesvirus 1, HEL 299, MTS, mean ± SD, no unit printed on the supplement page (Table 2 of the same screen is in µM)
# [18] = in vitro; settings: African green monkey
# [19] = test system: respiratory syncytial virus A (RSV A Long); experiment: Antiviral CPE reduction assay, RSV A Long in Hep2 cells; format: cell-based; settings: human respiratory syncytial virus, HEp-2; Hep2 cells; CPE reduction, MTS; mean ± SD of two or three independent experiments; read-out: Antiviral Activity (EC50) RSV A Long
# [20] = test system: HL-60 (acute myeloid leukemia); experiment: MTS proliferation assay, HL-60; settings: Homo sapiens, HL-60, 72 h, read-out: Anti-Proliferative Activity (IC50) HL-60
# [21] = test system: HCoV-OC43; experiment: Antiviral CPE reduction assay, HCoV-OC43 in HEL299 cells; format: cell-based, human coronavirus OC43; settings: Betacoronavirus 1, OC43, HEL 299, MTS, mean ± SD of two or three independent experiments
# [22] = test system: influenza A/H3N2 (A/HK/7/87); experiment: Antiviral CPE reduction assay, influenza A/H3N2 in MDCK cells; format: cell-based, influenza A virus; settings: Influenza A virus, H3N2; MDCK cells; CPE reduction, MTS; mean ± SD of two or three independent experiments; read-out: Antiviral Activity (EC50) Influenza H3N2
# [23] = in vitro; settings: human; remark: listed apart in the source
# [24] = test system: variety of viruses (HSV-1, influenza viruses, yellow fever virus, Zika virus, RSV, HCoV-229E, HCoV-OC43, HCoV-NL63); format: cell-based; settings: CPE reduction assays, virus panel
Structure (SMILES),melting point [°C],IC50 [1] [µM],EC50 [2] [µM],EC50 [3] [µM],EC50 [4] [µM],IC50 [6] [µM],IC50 [7] [µM],EC50 [8] [µM],IC50 [9] [µM],IC50 [10] [µM],CC50 [11] [µM],IC50 [12] [µM],IC50 [13] [µM],EC50 [15] [µM],EC50 [16] [µM],EC50 [17] [µM],CC50 [18] [µM],EC50 [19] [µM],IC50 [20] [µM],EC50 [21] [µM],further results
"C#Cc1cccc(Nc2ncnc3nc(NC4CC4)ncc23)c1 [Compound 7j, N^2-cyclopropyl-N^5-(3-ethynylphenyl)pyrimido[4,5-d]pyrimidine-2,5-diamine]",296,> 100,> 50,> 50,> 50,> 100,> 100,> 50,> 100,> 100,> 50,> 100,> 100,> 50,> 50,> 50,> 50,> 50,> 100,> 50,CC50 [5]: > 50 µM; CC50 [14]: > 50 µM; EC50 [22]: > 50 µM; CC50 [23]: > 50 µM
"C#Cc1cccc(Nc2ncnc3nc(N4CCN(C)CC4)ncc23)c1 [Compound 7h, N-(3-ethynylphenyl)-7-(4-methylpiperazin-1-yl)pyrimido[4,5-d]pyrimidin-4-amine]",290,> 100,> 50,> 50,> 50,52.3 ± 4.4,> 100,> 50,97.1 ± 1.5,> 100,> 50,66.5 ± 0.8,52.6 ± 1.4,> 50,> 50,> 50,> 50,> 50,79.1 ± 4.6,> 50,antiviral activity (in words) [24]: inactive; EC50 [22]: > 50 µM
"CCN(CC)CCNc1ncc2c(Nc3cccnc3)ncnc2n1 [Compound 7l, N^2-[2-(diethylamino)ethyl]-N^5-(pyridin-3-yl)pyrimido[4,5-d]pyrimidine-2,5-diamine]",220 to 224,> 100,> 50,> 50,> 50,> 100,> 100,> 50,> 100,> 100,> 50,> 100,> 100,> 50,> 50,> 50,> 50,> 50,> 100,> 50,CC50 [5]: > 50 µM; CC50 [14]: > 50 µM; EC50 [22]: > 50 µM; CC50 [23]: > 50 µM
"CCN(CC)CCNc1ncc2c(Nc3cccc4c3CCCC4)ncnc2n1 [Compound 7b, N^2-[2-(Diethylamino)ethyl]-N^5-(5,6,7,8-tetrahydronaphthalen-1-yl)pyrimido[4,5-d]pyrimidine-2,5-diamine]",181.3,> 100,> 50,> 50,> 50,> 100,> 100,11 ± 2.7,> 100,> 100,> 50,67.1 ± 4.7,62.6 ± 0.8,> 50,> 50,> 50,> 50,> 50,> 100,34.7 ± 16.7,CC50 [5]: > 50 µM; CC50 [14]: > 50 µM; EC50 [22]: > 50 µM; CC50 [23]: > 50 µM
"CN1CCN(c2ncc3c(Nc4cccc5c4CCC5)ncnc3n2)CC1 [Compound 7d, N-(2,3-dihydro-1H-inden-4-yl)-7-(4-methylpiperazin-1-yl)pyrimido[4,5-d]pyrimidin-4-amine]",> 250,> 100,> 50,> 50,> 50,61.3 ± 2.4,> 100,> 50,> 100,> 100,> 50,80.6 ± 10.2,56.5 ± 1.2,> 50,> 50,> 50,> 50,> 50,≥ 71,> 50,CC50 [5]: > 50 µM; CC50 [14]: > 50 µM; antiviral activity (in words) [24]: inactive; EC50 [22]: > 50 µM; CC50 [23]: > 50 µM
"c1cc2c(c(Nc3ncnc4nc(NC5CC5)ncc34)c1)CCCC2 [Compound 7c, N^2-cyclopropyl-N^5-(5,6,7,8-tetrahydronaphthalen-1-yl)pyrimido[4,5-d]pyrimidine-2,5-diamine]",189,> 100,> 50,> 50,> 50,> 100,> 100,> 50,> 100,> 100,> 50,> 100,> 100,> 50,> 50,> 50,> 50,> 50,> 100,> 50,CC50 [5]: > 50 µM; CC50 [14]: > 50 µM; antiviral activity (in words) [24]: inactive; EC50 [22]: > 50 µM; CC50 [23]: > 50 µM
"c1cc2c(c(Nc3ncnc4nc(NC5CC5)ncc34)c1)CCC2 [Compound 7g, N^2-cyclopropyl-N^5-(2,3-dihydro-1H-inden-4-yl)pyrimido[4,5-d]pyrimidine-2,5-diamine]",290,> 100,> 50,> 50,> 50,> 100,> 100,≥ 30.5,> 100,> 100,> 50,> 100,> 100,> 50,> 50,> 50,> 50,> 50,> 100,> 50,CC50 [5]: > 50 µM; CC50 [14]: > 50 µM; EC50 [22]: > 50 µM; CC50 [23]: > 50 µM
"c1cncc(Nc2ncnc3nc(NC4CC4)ncc23)c1 [Compound 7m, N^2-cyclopropyl-N^5-(pyridin-3-yl)pyrimido[4,5-d]pyrimidine-2,5-diamine]",243,> 100,> 50,> 50,> 50,> 100,> 100,> 50,> 100,> 100,> 50,> 100,> 100,> 50,> 50,> 50,> 50,> 50,> 100,> 50,CC50 [5]: > 50 µM; CC50 [14]: > 50 µM; EC50 [22]: > 50 µM; CC50 [23]: > 50 µM
